Legend:
[1] = test system: TNFα; assay: IRAK4 Monocyte TNFα Cell Based Assay; settings: cryopreserved human monocytes, LPS 50 pg/ml stimulation, TNFα by TR-FRET
Procedure: The cell suspension was then plated at a density of 5,000 cells/well onto black 384 well Greiner clear bottom plates. Plates were pre-spotted with test compounds and serially diluted in DMSO where 40 nL/well were delivered using the Echo 550 acoustic liquid dispenser (Labcyte®) for a final DMSO concentration of 0.1%. Plated cells were treated with compound for 1 hour at 37° C. Cells were then stimulated with 50 pg/ml of LPS (Sigma) excluding outside columns of plate used for unstimulated cell control wells. Cells were incubated for an additional 4 hours at 37° C. Cells were then spun out of the media and 5 μl of sample were taken and analyzed for total TNFα content using the TR-FRET Human TNFα detection system (CisBio). This system utilizes two labeled antibodies (cryptate and XL665) that bind to two different epitopes of the TNFα molecule and produce FRET signal proportional to the concentration of TNFα in the sample. Detection antibodies are mixed 50:50 and 5 μL were dispensed into each well. Plates were covered with clear seals and incubated at room temp overnight. The following morning plates were read using an Envision 2103 Multilabeled reader (PerkinElmer) with excitation/emission/FRET emission at 340 nm/615 nm/665 nm, respectively. Fluorescence intensities at 615 nm and 665 nm emission wavelengths were expressed as a ratio (665 nm/615 nm). Percent of control was calculated as follows: % Control=100×(RatioSample−Ratio0% stimulation)/(Ratio100% Stimulation−Ratio0% stimulation) where unstimulated cells (0% stimulation) were the negative control and stimulated cells (100% stimulation) were used as the positive control.

[2] = biological target: IRAK4 enzyme (Homo sapiens (Human), UniProt Q9NWZ3); assay: IRAK4 Biochemical Assay (TR-FRET/HTRF); settings: 0.75 nM IRAK4, 500 μM ATP, STK1 peptide
Chain of IRAK4 enzyme (Q9NWZ3 whole entry): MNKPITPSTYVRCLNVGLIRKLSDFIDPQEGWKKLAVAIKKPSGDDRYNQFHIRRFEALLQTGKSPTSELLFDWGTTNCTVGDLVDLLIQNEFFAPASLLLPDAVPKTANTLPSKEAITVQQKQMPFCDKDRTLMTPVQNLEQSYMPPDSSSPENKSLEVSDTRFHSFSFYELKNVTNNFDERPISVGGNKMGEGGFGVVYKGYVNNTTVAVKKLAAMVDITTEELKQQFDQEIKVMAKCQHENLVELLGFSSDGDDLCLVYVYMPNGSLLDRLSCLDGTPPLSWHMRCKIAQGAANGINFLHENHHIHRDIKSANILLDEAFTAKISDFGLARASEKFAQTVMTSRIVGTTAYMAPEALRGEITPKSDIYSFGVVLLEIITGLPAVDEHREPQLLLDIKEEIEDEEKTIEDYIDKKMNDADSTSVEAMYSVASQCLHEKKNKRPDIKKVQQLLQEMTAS
Procedure: IRAK4 enzyme (Carna Biosciences, Chuo-ku, Kobe, Japan) activity was measured by detecting phosphorylated peptide substrate formation using an antibody against the phosphorylated peptide substrate. This is a time-resolved fluorescence resonance energy transfer (TR-FRET) immunoassay, based on the STK1 KinEASE Assay (Cisbio, Bedford, Mass.). The assay was designed as a simple two-step, endpoint assay (a 5 μl enzyme reaction followed by 5 μl stop and detect Solution) performed in ProxiPlate-384 Plus plates (Perkin Elmer, Waltham, Mass.). Staurosporine, a non-selective kinase inhibitor was used as a positive control. Compounds diluted in DMSO were spotted into 384 well plates using a Labcyte® Echo 550 Liquid Handling System prior to addition of IRAK4 enzyme and peptide substrate. Reaction solutions were delivered using a Multi-Flo (Bio-Tek Instruments). The enzyme and peptide solution was incubated with compound for 15 minutes at room temp before the reaction was initiated by the addition of ATP. The standard 5 μl reaction mixture contained 500 μM ATP, 2 μM peptide (STK1 Peptide), 0.75 nM of IRAK4 in reaction buffer (50 mM HEPES, pH 7.0, 0.02% NaN3, 0.01% BSA, 0.1 mM Orthovanadate, 5 mM MgCl2, 0.025% NP-40, 1 mM DTT). After 120 min of incubation at room temperature, 5 μl of Stop and Detect Solution (1:100 Cryptate labeled anti-phosphorylated peptide antibody solution and 125 nM Tracer in a 50 mM HEPES pH 7.0 detection buffer containing sufficient EDTA) was added. The plate was then further incubated for 60 minutes at room temperature and read on Envision 2103 Multilabeled reader (PerkinElmer) with excitation/emission/FRET emission at 340 nm/615 nm/665 nm, respectively. Fluorescence intensities at 615 nm and 665 nm emission wavelengths were expressed as a ratio (665 nm/615 nm). Percentage of inhibition was calculated as below: % Inhibition=100×(RatioSample−Ratio0% Inhibition)/(Ratio100% Inhibition−Ratio0% Inhibition)
The 0% inhibition value comes from control wells lacking inhibitor. The 100% inhibition value comes from control wells containing a saturating amount of known inhibitor staurosporine.

How did the EC50 ([1]; Monocyte) turn out when `CNc1cc(-c2ccc3cc(C#N)cnn23)ncc1-c1cn(C)nn1` [Compound 36, 7-(5-(1-methyl-1H-1,2,3-triazol-4-yl)-4-(methylamino)pyridin-2-yl)pyrrolo[1,2-b]pyridazine-3-carbonitrile] was run?
Its EC50 is 324 nM.

What about the IC50 [2] of the same compound?
Its IC50 is 14 nM.

`CC(C)(O)[C@H](F)Cn1cc(-c2cnc(-c3ccc4cc(C#N)cnn34)cc2NC23CCC(O)(CC2)CC3)nn1` [Compound 25, (R)-7-(5-(1-(2-fluoro-3-hydroxy-3-methylbutyl)-1H-1,2,3-triazol-4-yl)-4-((4-hydroxybicyclo[2.2.2]octan-1-yl)amino)pyridin-2-yl)pyrrolo[1,2-b]pyridazine-3-carbonitrile] was tested. Which EC50 ([1]; Monocyte) did it give?
Its EC50 is 3 nM.

What about the IC50 [2] of the same compound?
Its IC50 is under 1 nM.

Which EC50 [1] does the source give for `COC(=O)NC[C@H]1C[C@H](Nc2cc(-c3ccc4cc(C#N)cnn34)ncc2-c2cn(CC#N)nn2)C1` [Compound 16, methyl (((1r,3r)-3-((5-(1-(cyanomethyl)-1H-1,2,3-triazol-4-yl)-2-(3-cyanopyrrolo[1,2-b]pyridazin-7-yl)pyridin-4-yl)amino)cyclobutyl)methyl)carbamate] here?
The EC50 was 33 nM.

What about the IC50 [2] of the same compound?
Its IC50 is 1 nM.

What does the source list for `CC(C)(O)[C@H](F)Cn1cc(-c2cnc(-c3ccc4cc(C#N)cnn34)cc2NC2COC2)nn1` [Compound 31, (R)-7-(5-(1-(2-fluoro-3-hydroxy-3-methylbutyl)-1H-1,2,3-triazol-4-yl)-4-(oxetan-3-ylamino)pyridin-2-yl)pyrrolo[1,2-b]pyridazine-3-carbonitrile]?
EC50 ([1]; Monocyte): 23 nM; IC50 [2]: < 1 nM

Which results are given for `CC(C)Nc1cc(-c2ccc3cc(C#N)cnn23)ncc1-c1cn(CC(C)(C)O)nn1` [Compound 50, 7-(5-(1-(2-hydroxy-2-methylpropyl)-1H-1,2,3-triazol-4-yl)-4-(isopropylamino)pyridin-2-yl)pyrrolo[1,2-b]pyridazine-3-carbonitrile]?
EC50 ([1]; Monocyte): 238 nM; IC50 [2]: 4 nM

Which EC50 ([1]; Monocyte) does the source give for `CC(C)(O)[C@H](F)Cn1cc(-c2cnc(-c3ccc4cc(C#N)cnn34)cc2NC23CCC(N4CCOCC4)(CC2)CC3)nn1` [Compound 34, (R)-7-(5-(1-(2-fluoro-3-hydroxy-3-methylbutyl)-1H-1,2,3-triazol-4-yl)-4-((4-morpholinobicyclo[2.2.2]octan-1-yl)amino)pyridin-2-yl)pyrrolo[1,2-b]pyridazine-3-carbonitrile] here?
Its EC50 is 6 nM.

What about the IC50 [2] of the same compound?
Its IC50 is under 1 nM.

What does the source list for `CC(C)(O)[C@H](F)Cn1cc(-c2cnc(-c3ccc4cc(C#N)cnn34)cc2N[C@H]2CC[C@H](c3nnc(C(F)F)o3)CC2)nn1` [Compound 3, 7-(4-(((1r,4R)-4-(5-(difluoromethyl)-1,3,4-oxadiazol-2-yl)cyclohexyl)amino)-5-(1-((R)-2-fluoro-3-hydroxy-3-methylbutyl)-1H-1,2,3-triazol-4-yl)pyridin-2-yl)pyrrolo[1,2-b]pyridazine-3-carbonitrile]?
EC50 [1]: 20 nM; IC50 [2]: 2 nM

For `CC(C)(O)[C@H](F)Cn1cc(-c2cnc(-c3ccc4cc(C#N)cnn34)cc2NCC#N)nn1` [Compound 2, (R)-7-(4-((cyanomethyl)amino)-5-(1-(2-fluoro-3-hydroxy-3-methylbutyl)-1H-1,2,3-triazol-4-yl)pyridin-2-yl)pyrrolo[1,2-b]pyridazine-3-carbonitrile], which EC50 ([1]; Monocyte) is on record?
The EC50 was 15 nM.

What about the IC50 [2] of the same compound?
The IC50 was 1 nM.

What does the source list for `Cn1cc(-c2cnc(-c3ccc4cc(C#N)cnn34)cc2NC23CCC(O)(CC2)CC3)nn1` [Compound 21, 7-(4-((4-hydroxybicyclo[2.2.2]octan-1-yl)amino)-5-(1-methyl-1H-1,2,3-triazol-4-yl)pyridin-2-yl)pyrrolo[1,2-b]pyridazine-3-carbonitrile]?
EC50 ([1]; Monocyte): 9 nM; IC50 [2]: < 1 nM

How did the EC50 ([1]; Monocyte) turn out when `COC(=O)Cn1cc(-c2cnc(-c3ccc4cc(C#N)cnn34)cc2NC(C)C)nn1` [Compound 56, methyl 2-(4-(6-(3-cyanopyrrolo[1,2-b]pyridazin-7-yl)-4-(isopropylamino)pyridin-3-yl)-1H-1,2,3-triazol-1-yl)acetate] was run?
Its EC50 is 42 nM.

And the IC50 [2]?
Its IC50 is under 1 nM.

From patent publication US11053250B2, “Pyrrolo[1,2-b]pyridazine derivatives” (Gilead Sciences, Inc., priority 2018, dated 2021)
